Experimental data reported in ChEMBL document CHEMBL3763105, “Semisynthesis of new aphidicolin derivatives with high activity against Trypanosoma cruzi” (Bioorg Med Chem Lett, 2016).
pIC50: −log10 of the molar value.

How the values were obtained:
Trypanosoma cruzi = test: Antitrypanosomal activity against Trypanosoma cruzi Tulahuen amastigotes infected in mouse C3H cells after 72 hrs by microplate reader analysis; assay type: functional, organism-based
[1] = Selectivity index, ratio of IC50 for mouse C3H cells to IC50 for Trypanosoma cruzi Tulahuen amastigotes infected in mouse C3H cells; assay type: toxicity, cell-based; details: read-out: Ratio IC50
[2] = Cytotoxicity against mouse C3H cells after 72 hrs by MTS assay; assay type: cell-based

Row | Compound | pIC50 (Trypanosoma cruzi) | selectivity ratio [1] | pIC50 [2]
1 | O=C(Cn1ccnc1[N+](=O)[O-])NCc1ccccc1 [BENZNIDAZOLE] | 5.52 | > 100 | < 4.00
2 | C[C@]1(CO)/C(=N\O)CC[C@]2(C)[C@@H]1CC[C@@H]1C[C@H]3C[C@]12CC[C@@]3(O)CO | 5.77 | 37.9 | 4.19
3 | COc1cccc2c1C(=O)c1c(O)c3c(c(O)c1C2=O)C[C@@](O)(C(=O)CO)C[C@@H]3O[C@H]1C[C@H](N)[C@H](O)[C@H](C)O1 [DOXORUBICIN] | – | – | 7.40
4 | C[C@]12COS(=O)O[C@H]1CC[C@]1(C)[C@@H]2CC[C@@H]2C[C@H]3C[C@]21CC[C@@]3(O)CO (some centres not stated) | 6.11 | > 100 | < 4.00

Now from value to compound, other results behind:

Row | pIC50 (Trypanosoma cruzi) | Compound | selectivity ratio [1] | pIC50 [2]
5 | < 4.00 | CC(C)(C)[Si](C)(C)OC[C@]1(O)CC[C@@]23C[C@@H]1C[C@H]2CC[C@@H]1[C@@](C)(CO[Si](C)(C)C(C)(C)C)[C@@H](O)CC[C@]13C | – | –
6 | < 4.00 | CC(C)(C)[Si](C)(C)OC[C@]1(O)CC[C@@]23C[C@@H]1C[C@H]2CC[C@@H]1[C@@](C)(CO[Si](C)(C)C(C)(C)C)C(=O)CC[C@]13C | – | –
